≈ marks a conversion by molar mass, not a printed value.
Experiments:
Assay type in all cases: functional
[1] = system: Bacillus cereus; test: Antibacterial activity against Bacillus cereus ATCC 7064 after 24 hrs by disk diffusion method
[2] = system: Bacillus cereus; test: Antibacterial activity against Bacillus cereus ATCC 7064 after 24 hrs by twofold serial dilution method; conditions: ATCC 7064, 24 h
[3] = system: Proteus vulgaris; test: Antibacterial activity against Proteus vulgaris ATCC 8427 after 24 hrs by twofold serial dilution method; conditions: ATCC 8427, 24 h
[4] = system: Candida albicans; test: Antifungal activity against Candida albicans ATCC 10231 after 48 hrs by twofold serial dilution method; conditions: ATCC 10231, 48 h
[5] = system: Listeria monocytogenes; test: Antibacterial activity against Listeria monocytogenes ATCC 15313 after 24 hrs by disk diffusion method
[6] = system: Micrococcus luteus; test: Antibacterial activity against Micrococcus luteus La 2971 after 24 hrs by disk diffusion method
[7] = system: Mycolicibacterium smegmatis; test: Antibacterial activity against Mycobacterium smegmatis CCM 2067 after 24 hrs by disk diffusion method
[8] = system: Pseudomonas aeruginosa; test: Antibacterial activity against Pseudomonas aeruginosa ATCC 27853 after 24 hrs by twofold serial dilution method; conditions: ATCC 27853, 24 h
[9] = system: Rhodotorula mucilaginosa; test: Antifungal activity against Rhodotorula rubra DSM 70403 after 48 hrs by twofold serial dilution method; conditions: DSM 70403, 48 h
[10] = system: Mycolicibacterium smegmatis; test: Antibacterial activity against Mycobacterium smegmatis CCM 2067 after 24 hrs by twofold serial dilution method; conditions: CCM 2067, 24 h
[11] = system: Escherichia coli; test: Antibacterial activity against Escherichia coli ATCC 11230 after 24 hrs by twofold serial dilution method; conditions: ATCC 11230, 24 h
[12] = system: Candida albicans; test: Antifungal activity against Candida albicans ATCC 10231 after 72 hrs by disk diffusion method
[13] = system: Staphylococcus aureus; test: Antibacterial activity against Staphylococcus aureus ATCC 6538 after 24 hrs by disk diffusion method
[14] = system: Kluyveromyces marxianus; test: Antifungal activity against Kluyveromyces fragilis NRRL 2415 after 48 hrs by twofold serial dilution method; conditions: NRRL 2415, 48 h
[15] = system: Hanseniaspora guilliermondii; test: Antifungal activity against Hanseniaspora guilliermondii DSM 3432 after 48 hrs by twofold serial dilution method; conditions: DSM 3432, 48 h
[16] = system: Kluyveromyces marxianus; test: Antifungal activity against Kluyveromyces fragilis NRRL 2415 after 72 hrs by disk diffusion method
[17] = system: Micrococcus luteus; test: Antibacterial activity against Micrococcus luteus La 2971 after 24 hrs by twofold serial dilution method
[18] = system: Rhodotorula mucilaginosa; test: Antifungal activity against Rhodotorula rubra DSM 70403 after 72 hrs by disk diffusion method
[19] = system: Hanseniaspora guilliermondii; test: Antifungal activity against Hanseniaspora guilliermondii DSM 3432 after 72 hrs by disk diffusion method
[20] = system: Escherichia coli; test: Antibacterial activity against Escherichia coli ATCC 11230 after 24 hrs by disk diffusion method
[21] = system: Debaryomyces hansenii; test: Antifungal activity against Debaryomyces hansenii DSM 70238 after 72 hrs by disk diffusion method
[22] = system: Klebsiella pneumoniae; test: Antibacterial activity against Klebsiella pneumoniae UC57 after 24 hrs by disk diffusion method
[23] = system: Proteus vulgaris; test: Antibacterial activity against Proteus vulgaris ATCC 8427 after 24 hrs by disk diffusion method
[24] = system: Klebsiella pneumoniae; test: Antibacterial activity against Klebsiella pneumoniae UC57 after 24 hrs by twofold serial dilution method
[25] = system: Debaryomyces hansenii; test: Antifungal activity against Debaryomyces hansenii DSM 70238 after 48 hrs by twofold serial dilution method; conditions: DSM 70238, 48 h
[26] = system: Listeria monocytogenes; test: Antibacterial activity against Listeria monocytogenes ATCC 15313 after 24 hrs by twofold serial dilution method; conditions: ATCC 15313, 24 h
[27] = system: Pseudomonas aeruginosa; test: Antibacterial activity against Pseudomonas aeruginosa ATCC 27853 after 24 hrs by disk diffusion method
[28] = system: Staphylococcus aureus; test: Antibacterial activity against Staphylococcus aureus ATCC 6538 after 24 hrs by twofold serial dilution method; conditions: ATCC 6538, 24 h
[29] = system: Micrococcus luteus; test: Antibacterial activity against Micrococcus luteus La 2971 at 1 ug after 24 hrs by disk diffusion method; conditions: read-out: IZ
[30] = system: Mycolicibacterium smegmatis; test: Antibacterial activity against Mycobacterium smegmatis CCM 2067 at 1 ug after 24 hrs by disk diffusion method; conditions: CCM 2067, 24 h, read-out: IZ
[31] = system: Pseudomonas aeruginosa; test: Antibacterial activity against Pseudomonas aeruginosa ATCC 27853 at 1 ug after 24 hrs by disk diffusion method; conditions: ATCC 27853, 24 h, read-out: IZ
[32] = system: Staphylococcus aureus; test: Antibacterial activity against Staphylococcus aureus ATCC 6538 at 1 ug after 24 hrs by disk diffusion method; conditions: ATCC 6538, 24 h, read-out: IZ
[33] = system: Bacillus cereus; test: Antibacterial activity against Bacillus cereus ATCC 7064 at 1 ug after 24 hrs by disk diffusion method; conditions: ATCC 7064, 24 h, read-out: IZ
[34] = system: Proteus vulgaris; test: Antibacterial activity against Proteus vulgaris ATCC 8427 at 1 ug after 24 hrs by disk diffusion method; conditions: ATCC 8427, 24 h, read-out: IZ
[35] = system: Escherichia coli; test: Antibacterial activity against Escherichia coli ATCC 11230 at 1 ug after 24 hrs by disk diffusion method; conditions: ATCC 11230, 24 h, read-out: IZ
[36] = system: Klebsiella pneumoniae; test: Antibacterial activity against Klebsiella pneumoniae UC57 at 1 ug after 24 hrs by disk diffusion method; conditions: read-out: IZ
[37] = system: Listeria monocytogenes; test: Antibacterial activity against Listeria monocytogenes ATCC 15313 at 1 ug after 24 hrs by disk diffusion method; conditions: ATCC 15313, 24 h, read-out: IZ
[38] = system: Micrococcus luteus; test: Antibacterial activity against Micrococcus luteus La 2971 at 5 ug after 24 hrs by disk diffusion method; conditions: read-out: IZ
[39] = system: Mycolicibacterium smegmatis; test: Antibacterial activity against Mycobacterium smegmatis CCM 2067 at 5 ug after 24 hrs by disk diffusion method; conditions: CCM 2067, 24 h, read-out: IZ
[40] = system: Proteus vulgaris; test: Antibacterial activity against Proteus vulgaris ATCC 8427 at 5 ug after 24 hrs by disk diffusion method; conditions: ATCC 8427, 24 h, read-out: IZ
[41] = system: Klebsiella pneumoniae; test: Antibacterial activity against Klebsiella pneumoniae UC57 at 5 ug after 24 hrs by disk diffusion method; conditions: read-out: IZ
[42] = system: Escherichia coli; test: Antibacterial activity against Escherichia coli ATCC 11230 at 5 ug after 24 hrs by disk diffusion method; conditions: ATCC 11230, 24 h, read-out: IZ
[43] = system: Bacillus cereus; test: Antibacterial activity against Bacillus cereus ATCC 7064 at 5 ug after 24 hrs by disk diffusion method; conditions: ATCC 7064, 24 h, read-out: IZ
[44] = system: Staphylococcus aureus; test: Antibacterial activity against Staphylococcus aureus ATCC 6538 at 5 ug after 24 hrs by disk diffusion method; conditions: ATCC 6538, 24 h, read-out: IZ
[45] = system: Listeria monocytogenes; test: Antibacterial activity against Listeria monocytogenes ATCC 15313 at 5 ug after 24 hrs by disk diffusion method; conditions: ATCC 15313, 24 h, read-out: IZ
[46] = system: Pseudomonas aeruginosa; test: Antibacterial activity against Pseudomonas aeruginosa ATCC 27853 at 5 ug after 24 hrs by disk diffusion method; conditions: ATCC 27853, 24 h, read-out: IZ

## O=C1CSCC(=O)Nc2cccc(n2)NC(=O)CSCC(=O)Nc2cccc(n2)N1
[1]
  inhibition zone (IZ): 12 mm
[2]
  MIC: 12.5 µg/mL (≈ 28 µM)
[3]
  MIC: 25 µg/mL (≈ 56 µM)
[4]
  MIC: 6.25 µg/mL (≈ 14 µM)
[5]
  inhibition zone (IZ): 12 mm
[6]
  inhibition zone (IZ): 12 mm
[7]
  inhibition zone (IZ): 10 mm
[8]
  MIC: 6.25 µg/mL (≈ 14 µM)
[9]
  MIC: 6.25 µg/mL (≈ 14 µM)
[10]
  MIC: 25 µg/mL (≈ 56 µM)
[11]
  MIC: 25 µg/mL (≈ 56 µM)
[12]
  inhibition zone (IZ): 17 mm
[13]
  inhibition zone (IZ): 14 mm
[14]
  MIC: 3.12 µg/mL (≈ 7 µM)
[15]
  MIC: 3.12 µg/mL (≈ 7 µM)
[16]
  inhibition zone (IZ): 20 mm
[17]
  MIC: 12.5 µg/mL (≈ 28 µM)
[18]
  inhibition zone (IZ): 15 mm
[19]
  inhibition zone (IZ): 20 mm
[20]
  inhibition zone (IZ): 10 mm
[21]
  inhibition zone (IZ): 18 mm
[22]
  inhibition zone (IZ): 15 mm
[23]
  inhibition zone (IZ): 11 mm
[24]
  MIC: 6.25 µg/mL (≈ 14 µM)
[25]
  MIC: 3.12 µg/mL (≈ 7 µM)
[26]
  MIC: 12.5 µg/mL (≈ 28 µM)
[27]
  inhibition zone (IZ): 16 mm
[28]
  MIC: 12.5 µg/mL (≈ 28 µM)

## O=C1CCSSCCC(=O)Nc2cccc(n2)NC(=O)CCSSCCC(=O)Nc2cccc(n2)N1
[1]
  inhibition zone (IZ): 15 mm
[2]
  MIC: 12.5 µg/mL (≈ 22.1 µM)
[3]
  MIC: 25 µg/mL (≈ 44.1 µM)
[4]
  MIC: 1.56 µg/mL (≈ 2.75 µM)
[5]
  inhibition zone (IZ): 15 mm
[6]
  inhibition zone (IZ): 15 mm
[7]
  inhibition zone (IZ): 10 mm
[8]
  MIC: 6.25 µg/mL (≈ 11 µM)
[9]
  MIC: 1.56 µg/mL (≈ 2.75 µM)
[10]
  MIC: 25 µg/mL (≈ 44.1 µM)
[11]
  MIC: 6.25 µg/mL (≈ 11 µM)
[12]
  inhibition zone (IZ): 22 mm
[13]
  inhibition zone (IZ): 15 mm
[14]
  MIC: 1.56 µg/mL (≈ 2.75 µM)
[15]
  MIC: 1.56 µg/mL (≈ 2.75 µM)
[16]
  inhibition zone (IZ): 22 mm
[17]
  MIC: 12.5 µg/mL (≈ 22.1 µM)
[18]
  inhibition zone (IZ): 22 mm
[19]
  inhibition zone (IZ): 22 mm
[20]
  inhibition zone (IZ): 16 mm
[21]
  inhibition zone (IZ): 22 mm
[22]
  inhibition zone (IZ): 17 mm
[23]
  inhibition zone (IZ): 11 mm
[24]
  MIC: 6.25 µg/mL (≈ 11 µM)
[25]
  MIC: 1.56 µg/mL (≈ 2.75 µM)
[26]
  MIC: 12.5 µg/mL (≈ 22.1 µM)
[27]
  inhibition zone (IZ): 17 mm
[28]
  MIC: 6.25 µg/mL (≈ 11 µM)

## CC1(C)S[C@@H]2[C@H](NC(=O)[C@H](N)c3ccccc3)C(=O)N2[C@H]1C(=O)O [AMPICILLIN]
[29]
  zone of inhibition at 1 µg/disc: 10 mm
[30]
  zone of inhibition at 1 µg/disc: 21 mm
[31]
  zone of inhibition at 1 µg/disc: 12 mm
[32]
  zone of inhibition at 1 µg/disc: 16 mm
[33]
  zone of inhibition at 1 µg/disc: 16 mm
[34]
  zone of inhibition at 1 µg/disc: 32 mm
[35]
  zone of inhibition at 1 µg/disc: 12 mm
[36]
  zone of inhibition at 1 µg/disc: 14 mm
[37]
  zone of inhibition at 1 µg/disc: 12 mm

## CO/N=C(\C(=O)N[C@@H]1C(=O)N2C(C(=O)O)=C(COC(C)=O)CS[C@H]12)c1csc(N)n1 [CEFOTAXIME]
[29]
  zone of inhibition at 1 µg/disc: 54 mm
[30]
  zone of inhibition at 1 µg/disc: 11 mm
[31]
  zone of inhibition at 1 µg/disc: 14 mm
[32]
  zone of inhibition at 1 µg/disc: 12 mm
[33]
  zone of inhibition at 1 µg/disc: 18 mm
[34]
  zone of inhibition at 1 µg/disc: 32 mm
[35]
  zone of inhibition at 1 µg/disc: 10 mm
[36]
  zone of inhibition at 1 µg/disc: 13 mm
[37]
  zone of inhibition at 1 µg/disc: 16 mm

## CC1COc2c(N3CCN(C)CC3)c(F)cc3c(=O)c(C(=O)O)cn1c23 (stereo not drawn) [OFLOXACIN]
[38]
  zone of inhibition at 5 µg/disc: 44 mm
[39]
  zone of inhibition at 5 µg/disc: 32 mm
[40]
  zone of inhibition at 5 µg/disc: 28 mm
[41]
  zone of inhibition at 5 µg/disc: 28 mm
[42]
  zone of inhibition at 5 µg/disc: 30 mm
[43]
  zone of inhibition at 5 µg/disc: 28 mm
[44]
  zone of inhibition at 5 µg/disc: 24 mm
[45]
  zone of inhibition at 5 µg/disc: 30 mm
[46]
  zone of inhibition at 5 µg/disc: 30 mm
